Legend:
magnesium level in serum = test: Serum magnesium in hypermagnesemic chronic renal failure patients (Example 17); assay type: in vivo, human; details: for Magnesium level in serum after administration: 10 days; for Magnesium level in serum before administration: baseline
Experimental: To the three patients of chronic renal failure showing the hypermagnesemic symptoms of nearly the same extent to each other, 24R,25-(OH)2 -D3 was orally administered in a form of soft capsule composition prepared in Example 6 at a daily dose of 2 to 5 micrograms for continuous 10 days. Magnesium level in their serum was determined before and after the administration following the ordinary method.

[1] = 30-day repeated oral administration toxicity (Example 26); assay type: in vivo, ICR mouse; details: 10 to 1000 µg/kg/day p.o., 30 days
Experimental: 24R,25-(OH)2 -D3 was dissolved in Panacete® 810 containing 1% by weight of ethanol, and the solution was forcibly p.o. administered once a day for 30 continuous days to each male or female ICR mouse of the groups shown in Table 20 at each one of the daily dose rates also shown in Table 20.
As the control, Panacete 810 was solely and forcibly p.o. administered to the mice of the same strain once a day for 30 continuous days.

[2] = system: inorganic phosphate in serum; test: Serum inorganic phosphate in 5/6-nephrectomized rats (Example 18); assay type: in vivo, male Wistar rats; details: hyperphosphatemia due to 5/6-nephrectomy
Experimental: Ten milligrams of 24R,25-(OH)2 -D3 was dissolved in 10 ml of isopropyl alcohol and one ml of the thus obtained solution was admixed into 1,000 ml of distilled water under agitation. The thus obtained solution has the concentration of isopropyl alcohol of 0.1% by weight and the concentration of 24R,25-(OH)2 -D3 of 1 microgram/ml and was called as the composition for oral administration A (abbreviated and referred to as Composition A hereinafter). In a similar manner as the above, another composition for oral administration of the concentration of 24R,25-(OH)2 -D3 of 0.1 microgram/ml and the concentration of isopropyl alcohol of 0.1% by weight was prepared, and referred to hereinafter as Composition B.
Thirty male Wistar rats of average body weight of 200±30 g were subjected to operation of 5/6--nephrectomy.
Ten male Wistar rats of the same average body weight were subjected to sham operation. After one month of the operation, the above-mentioned Composition A or Composition B was given to each group (one group consisting of 10 animals) of the rats 6 times a week for 9 weeks to be taken ad lib. The amount of 24R,25-(OH)2 -D3 taken by each rat for a week was calculated from the total amount of water taken by the rats of the group, the total amount of water taken by the rats being actually measured week after week.

calcium level in serum = test: Serum calcium in rats transplanted with Walker-carcinosarcoma 256 (Example 5); assay type: in vivo, Sprague-Dawley rat
Experimental: After injecting 0.5 ml of ascites of Walker-carcinosarcoma 256 adjusted to contain 2×10^6 tumour cells per microliter into the upper part of the right thigh of a Sprague-Dawley rat of body weight of 90-140 g, a solution of 24R,25-(OH)2 -D3 in the triglyceride ester used in Example 1 at a concentration of 0.5 microgram/100 microliter was orally administered once a day for continuous 7 days at a daily dose rate of 20 micrograms of 24R,25-(OH)2 -D3 per kg body weight of the rat. […] The blood specimen was also collected in the same manner from a rat of the same strain injected with the ascites in the same manner as in the first rat, however, only administered with the triglyceride ester. The two levels of calcium in the respective sera of the two groups were compared in Table 5.

[3] = system: inorganic phosphate in serum; test: Serum inorganic phosphate in rats given puromycin aminonucleoside (Example 19); assay type: in vivo, male Wistar rats; details: hyperphosphatemia due to puromycin-amino-nucleoside
Experimental: Puromycin aminonucleoside (hereinafter abbreviated as AN) was dissolved in physiological saline solution to be the concentration of 15 mg of AN/ml.
The thus prepared solution was subcutaneously administered to […] in 9th to 10th week after birth divided equally into 3 groups once a day for continuous 5 days at a daily dose rate of 15 mg/kg body weight, and the administration of AN was suspended for the next 2 weeks. This cycle of 5 days of administration followed by 2 weeks of suspension of administration was repeated 5 times, and from the commencement of the 4th cycle, drinking water was substituted by one of the compositions for oral administration prepared in Example 18, namely, Composition A or Composition B to be taken ad lib by each one of the three groups of the rats for 38 days therefrom. […] As control, a group consisting of 8 male Wistar rats was used without giving AN and with the oral administration of aqueous 0.1% by weight isopropyl alcohol solution taken ad lib during the same 38 days as above. As comparative example, another group consisting of 8 male Wistar rats was used with the same administration of AN as in the test groups and with the oral administration of aqueous 0.1% by weight isopropyl alcohol taken ad lib as in the control group.

## C=C1CC[C@H](O)C/C1=C/C=C1\CCC[C@]2(C)[C@@H]([C@H](C)CC[C@@H](O)C(C)(C)O)CC[C@@H]12 [24R,25-(OH)2 -D3]
Magnesium level in serum; patient A, 5 µg/day
  Magnesium level in serum after administration: 2.0 mg/dL
Magnesium level in serum; patient A
  Magnesium level in serum before administration: 4.2 mg/dL
Magnesium level in serum; patient B, 2 µg/day
  Magnesium level in serum after administration: 2.1 mg/dL
Magnesium level in serum; patient B
  Magnesium level in serum before administration: 4.0 mg/dL
Magnesium level in serum; patient C, 5 µg/day
  Magnesium level in serum after administration: 1.9 mg/dL
Magnesium level in serum; patient C
  Magnesium level in serum before administration: 4.3 mg/dL
[1]
  histopathological examination of organs: no abnormal findings were obtained
[1]; all groups
  body weight: no significant difference of body weight was observed
  weights of internal organs: not significantly different
[2]
  inorganic phosphate level in serum: significant reduction of the inorganic phosphate level
Calcium level in serum; 20 µg/kg/day oral, 7 days
  Calcium level in serum after one week of transplantation: 11.2 ± 0.6 mg/dL
Calcium level in serum; before transplantation (baseline)
  Calcium level in serum before transplantation: 10.5 ± 0.3 mg/dL
[3]
  inorganic phosphate level in serum: significant reduction of the inorganic phosphate level

Reference: US4442093A, “Method for administering 24,25-dihydroxycholecalciferol to persons suffering from hypercalcemia” (Kureha Kagaku Kogyo Kabushiki Kaisha, priority 1981, dated 1984)
